US20140349329A1, “DENSITY ANALYSIS OF ORGANISMS BY MAGNETIC LEVITATION” (President and Fellows of Harvard College, priority 2011, published 2014)

Experiments:
Format in all cases: in vivo
[1] = system: C. elegans; assay: Density estimate of C. elegans by centrifugation in a Percoll gradient with density marker beads; settings: qualitative
Procedure: In the experiments on C. elegans, the organism was exposed to aspirin, which results in an accumulation of lipids in the organism due to the sequestration of coenzyme A and the inhibition of fatty acid degradation. A density estimate of C. elegans exposed to aspirin and the density of control C. elegans that were not exposed to aspirin was determined via a Percoll gradient. The density of C. elegans changed upon exposure to aspirin with respect to an unexposed control group. Aspirin-treated C. elegans were centrifuged with a set of density marker beads in order to measure the density of different populations of C. elegans qualitatively and to establish the ranges of interest for quantitative density measurements using MagLev. A chelated form of manganese, ethylenediaminetetraacetic acid disodium manganese salt (Mn•EDTA), was used in the MagLev experiments as it is FDA approved for in vivo applications. The analysis of treated and untreated populations of C. elegans by MagLev employed concentrations of Mn•EDTA up to several hundred millimolar. C. elegans were motile within the paramagnetic solution and their swimming motion counteracted the balance of magnetic and gravitational forces within the MagLev device. Ivermectin was introduced into the paramagnetic solution to paralyze the organisms, this stabilized the organisms within the MagLev device.

[2] = system: C. elegans; assay: Density of C. elegans by magnetic levitation (MagLev) after exposure to drug; settings: worms treated with 6 mM aspirin (and Nile Red); medium 33% Percoll, 67% M9 buffer, 135 mM Mn•EDTA, 0.057 mM Ivermectin; T=23° C; N=10 worms; untreated 1.074±0.001
Procedure: To show the applicability of the present methodologies, two experiments using magnetic levitation (MagLev) to quantify the change in density in different organisms are described. In particular, experiments were performed on C. elegans and embryos of Danio rerio (i.e., zebrafish). In these embodiments, the paramagnetic salt was chelated Mn•EDTA, and the osmolality of the paramagnetic medium was approximately isotonic with the species under study (˜300 mOsm/kg).
In the experiments on C. elegans, the organism was exposed to aspirin, which results in an accumulation of lipids in the organism due to the sequestration of coenzyme A and the inhibition of fatty acid degradation. A density estimate of C. elegans exposed to aspirin and the density of control C. elegans that were not exposed to aspirin was determined via a Percoll gradient. […] Aspirin-treated C. elegans were centrifuged with a set of density marker beads in order to measure the density of different populations of C. elegans qualitatively and to establish the ranges of interest for quantitative density measurements using MagLev. […]
Using MagLev, the density of different populations of C. elegans was calculated with high precision. […] The magnetic levitation set up used to quantify the density of each worm involved placing the sample between two magnets. […]

[3] = system: embryos of Danio rerio (i.e., zebrafish); assay: Development of zebrafish embryos levitated in paramagnetic medium
Procedure: To show the applicability of the present methodologies, two experiments using magnetic levitation ([…]) to quantify the change in density in different organisms are described. In particular, experiments were performed on C. elegans and embryos of Danio rerio (i.e., zebrafish). In these embodiments, the paramagnetic salt was chelated Mn•EDTA, and the osmolality of the paramagnetic medium was approximately isotonic with the species under study ( 300 mOsm/kg). The development of zebrafish was monitored over a period of 54 h in a solution of 100 mM Gd•DTPA and 150 mM Gd•DTPA with Percoll and a saline solution (FIG. 4). […] In these experiments, four zebrafish embryos (collected from one strain of fish) were placed into a paramagnetic medium containing Gd•DTPA, Percoll and saline buffer. For these experiments, polystyrene spheres were included as density controls. After 16 hours of monitoring development, the levitation medium was changed to one composed of a higher concentration of the gadolinium chelate.

development of embryos in the paramagnetic solution ([3]; 100 mM and 150 mM Gd•DTPA with Percoll and saline solution, monitored over 54 h) | morphology of the embryos after increase in concentration of the paramagnetic salt ([3]; medium changed after 16 hours to a higher concentration of the gadolinium chelate) | Compound | density of C. elegans upon exposure, with respect to unexposed control group [1] | density of worms (MagLev) [2] [g/mL]
 |  | CC(=O)Oc1ccccc1C(=O)O [aspirin] | changed | 1.070 ± 0.002
not affected | did not affect the morphology | O=C([O-])CN(CCN(CC(=O)[O-])CC(=O)O)CCN(CC(=O)[O-])CC(=O)O.[Gd+3] [Gd•DTPA] |  | 
